Columns and labels:
Assay in all cases: Example B2 herbicidal action, post-emergence, pots in glasshouse, damage score 0-10
Format in all cases: in vivo
Conditions in all cases: application post-emergence, rate 1000 g/ha, evaluated after 13 days
Amaranthus retroflexus = system: Amaranthus retroflexus
Description: (§1) Seeds of a variety of test species were sown in standard soil in pots. After 8 days cultivation (post-emergence) under controlled conditions in a glasshouse (at 24/16° C., day/night; 14 hours light; 65% humidity), the plants were sprayed with an aqueous spray solution derived from the formulation of the technical active ingredient in acetone/water (50:50) solution containing 0.5% Tween 20 (polyoxyethelyene sorbitan monolaurate, CAS RN 9005-64-5). The test plants were then grown in a glasshouse under controlled conditions in a glasshouse (at 24/16° C., day/night; 14 hours light; 65% humidity) and watered twice daily. After 13 days, the test was evaluated (10=total damage to plant; 0=no damage to plant).

Echinochloa crus-galli = system: Echinochloa crus-galli
Description: as §1

Ipomea hederaceae = system: Ipomea hederaceae
Description: as §1

Setaria faberi = system: Setaria faberi
Description: as §1

Solanum nigrum = system: Solanum nigrum
Description: as §1

SMILES	AMARE damage score (10=total damage to plant; 0=no damage to plant) (Amaranthus retroflexus)	ECHCG damage score (10=total damage to plant; 0=no damage to plant) (Echinochloa crus-galli)	IPOHE damage score (10=total damage to plant; 0=no damage to plant) (Ipomea hederaceae)	SETFA damage score (10=total damage to plant; 0=no damage to plant) (Setaria faberi)	SOLNI damage score (10=total damage to plant; 0=no damage to plant) (Solanum nigrum)
COCN1c2nccnc2C(OC(=O)C(C)(C)C)=C(c2ccccc2SC(F)(F)F)S1(=O)=O [Compound C23]	5	4	4	3	6
CCN1c2nccnc2C(OC(=O)C(C)(C)C)=C(c2c(F)ccc(OC)c2Cl)S1(=O)=O [Compound C24]	2	4	9	0	9
COc1ccc(F)c(C2=C(OC(=O)C(C)(C)C)c3nccnc3N(CC(F)F)S2(=O)=O)c1Cl [Compound C25]	9	6	9	0	10
CCN1c2nccnc2C(OC(=O)C(C)C)=C(c2ccc(Cl)c(Cl)c2)S1(=O)=O [Compound C26]	9	0	0	0	0
COCN1c2nccnc2C(OC(=O)C(C)C)=C(c2ccc(Cl)cc2Cl)S1(=O)=O [Compound C27]	7	3	6	6	9
CC(C)(C)C(=O)OC1=C(c2c(Cl)cccc2Cl)S(=O)(=O)N(CC(F)F)c2nccnc21 [Compound C28]	7	2	6	2	6
CCN1c2nccnc2C(OS(=O)(=O)C(F)(F)F)=C(c2ccc(Cl)cc2C(F)(F)F)S1(=O)=O [Compound C29, trifluoromethanesulfonic acid-3-(4-chloro-2-trifluoromethylphenyl)-1-ethyl-2,2-dioxo-1,2-dihydro-2-λ-6-thia-1,5,8-triaza-naphthalen-4-yl ester]	2	4	5	0	5
CCN1c2nccnc2C(OC(=O)C(C)C)=C(c2c(Cl)cccc2C(F)(F)F)S1(=O)=O [Compound C30]	8	6	9	5	10
CC(C)(C)C(=O)OC1=C(c2c(Cl)cccc2C(F)(F)F)S(=O)(=O)N(CC(F)F)c2nccnc21 [Compound C31]	8	8	8	7	9
CCSC(=O)OC1=C(c2c(F)ccc(Cl)c2Cl)S(=O)(=O)N(CC(F)F)c2nccnc21 [Compound C32]	8	7	9	1	8
CCN1c2nccnc2C(OC(=O)C(C)(C)C)=C(c2cc(C(F)(F)F)ccc2Cl)S1(=O)=O [Compound C33]	1	0	5	0	6
CC(C)(C)C(=O)OC1=C(c2cc(C(F)(F)F)ccc2Cl)S(=O)(=O)N(CC(F)F)c2nccnc21 [Compound C34, 2,2-dimethyl-propionic acid 3-(2-chloro-5-trifluoromethyl-phenyl)-1-(2,2-difluoro-ethyl)-2,2-dioxo-1,2-dihydro-2-λ-6-thia-1,5,8-triaza-naphthalen-4-yl ester]	7	7	10	2	9

Reference: patent US8133849B2, “Herbicidal compounds” (Syngenta Limited, priority 2007, dated 2012)
